Test results: ChEMBL document CHEMBL1201862, “PubChem BioAssay data set” (2004)
Where “and” joins values, the source holds several entries; their conditions need not be identical. Equal entries are not always repeated.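 Grown in 96-well plates, cells were treated for 48 hours with each compound at five concentrations. Insufficient inhibition: endpoint recorded as highest concentration tested. GI50 marks 50% less growth.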 Calls of active or inactive are those of the source. Rule as the data show it: active = GI50 up to about 1.1 µM and inactive = higher.

Legend:
Assay in all cases: NCI anticancer screen, dose series, 48 h
DU-145 = system: DU-145
SF-539 = system: SF-539
HOP-62 = system: HOP-62
SK-OV-3 = system: SK-OV-3
U-251 = system: U-251
NCI-H522 = system: NCI-H522
SK-MEL-5 = system: SK-MEL-5
K562 = system: K562
NCI-H460 = system: NCI-H460
SR = system: SR
Malme-3M = system: Malme-3M
OVCAR-5 = system: OVCAR-5
MDA-N = system: MDA-N
UACC-62 = system: UACC-62
Hs-578T = system: Hs-578T
OVCAR-4 = system: OVCAR-4
RPMI-8226 = system: RPMI-8226
TK-10 = system: TK-10
LOX IMVI = system: LOX IMVI
CCRF-CEM = system: CCRF-CEM

Structure (SMILES) | GI50 (DU-145) | GI50 (SF-539) | GI50 (HOP-62) | GI50 (SK-OV-3) | GI50 (U-251) | GI50 (NCI-H522) | GI50 (SK-MEL-5) | GI50 (K562) | GI50 (NCI-H460) | GI50 (SR) | GI50 (Malme-3M) | GI50 (OVCAR-5) | GI50 (MDA-N) | GI50 (UACC-62) | GI50 (Hs-578T) | GI50 (OVCAR-4) | GI50 (RPMI-8226) | GI50 (TK-10) | GI50 (LOX IMVI) | GI50 (CCRF-CEM)
CC(=O)OCc1ccc2oc(=O)c(C(=O)Oc3cccc(Cl)c3)cc2c1 | > 100 µM (inactive) | 46.2 µM (inactive) | 99.1 µM (inactive) | > 100 µM (inactive) | > 100 µM (inactive) | > 100 µM (inactive) | > 100 µM (inactive) | 23.9 µM (inactive) | 37.9 µM (inactive) | 44.8 µM (inactive) | > 100 µM (inactive) | > 100 µM (inactive) | > 100 µM (inactive) | 17.4 µM (inactive) | > 100 µM (inactive) | > 100 µM (inactive) | > 100 µM (inactive) | 31.5 µM (inactive) | > 100 µM (inactive) | > 100 µM (inactive)
COc1cc2[nH]c(=O)c3cc(-c4ccccc4)cc4c(Cl)nc(c1OC)c2c43 | 23.6 µM (inactive) | 0.63 µM (active) | 32.6 µM (inactive) | > 47.8 µM (inactive) | 16.4 µM (inactive) | 3.77 µM (inactive) | 12.5 µM (inactive) | 38.2 µM (inactive) | 21 µM (inactive) | 9.89 µM (inactive) | 6.32 µM (inactive) | 49.4 µM (inactive) | 3.86 µM (inactive) | 14.1 µM (inactive) | > 100 µM (inactive) | 9.27 µM (inactive) | 13.2 µM (inactive) | 29.6 µM (inactive) | 6.78 µM (inactive) | 4.88 µM (inactive)
NC(Cc1ccc(N(CCCl)CCCl)cc1)C(=O)NC(CCC(=O)O)C(=O)O (centres undefined) | > 100 µM (inactive) | > 100 µM (inactive) | > 100 µM (inactive) | > 100 µM (inactive) | > 100 µM (inactive) | > 100 µM (inactive) | > 100 µM (inactive) | > 100 µM (inactive) | > 100 µM (inactive) | 38 µM (inactive) and 60.4 µM (inactive) | > 100 µM (inactive) | > 100 µM (inactive) | > 100 µM (inactive) | > 100 µM (inactive) | > 100 µM (inactive) | > 100 µM (inactive) | > 100 µM (inactive) | > 100 µM (inactive) | > 100 µM (inactive) | > 100 µM (inactive)
COC(=O)CCCc1ccc2c(c1)CCC2 | > 100 µM (inactive) | > 100 µM (inactive) | > 100 µM (inactive) | > 100 µM (inactive) | > 100 µM (inactive) | 92.3 µM (inactive) | > 100 µM (inactive) |  | > 100 µM (inactive) | > 100 µM (inactive) | > 100 µM (inactive) | > 100 µM (inactive) | > 100 µM (inactive) | > 100 µM (inactive) | > 100 µM (inactive) | > 100 µM (inactive) | > 100 µM (inactive) | > 100 µM (inactive) | > 100 µM (inactive) | > 100 µM (inactive)
O=C1c2ccccc2C(=O)c2c(NCC3CO3)ccc(NCC3CO3)c21 (centres undefined) | 3.58 µM (inactive) | 1.91 µM (inactive) | 1.55 µM (inactive) | 10.4 µM (inactive) | 1.65 µM (inactive) | 5.24 µM (inactive) | 1.68 µM (inactive) | 0.128 µM (active) | 2.39 µM (inactive) | 0.0228 µM (active) | 5.3 µM (inactive) | 4.54 µM (inactive) | 1.3 µM (inactive) | 1.08 µM (active) | 3.72 µM (inactive) | 10.9 µM (inactive) | 2.76 µM (inactive) | 19 µM (inactive) | 0.0132 µM (active) | < 0.01 µM (active)
NCCCCNCCCNC(=O)CNC(=O)CC(O)C(N)CCCC(NC(=O)C(CN)NC(=O)C(O)CNC(=O)CC(N)c1ccc(O)cc1)C(=O)O (centres undefined) | > 10 µM (inactive) | > 10 µM (inactive) | > 10 µM (inactive) | > 10 µM (inactive) | > 10 µM (inactive) | > 10 µM (inactive) | > 10 µM (inactive) | > 10 µM (inactive) | > 10 µM (inactive) | > 10 µM (inactive) | > 10 µM (inactive) | > 10 µM (inactive) | > 10 µM (inactive) | > 10 µM (inactive) | > 10 µM (inactive) | > 10 µM (inactive) | > 10 µM (inactive) | > 10 µM (inactive) | > 10 µM (inactive) | > 10 µM (inactive)
Nc1nc(N)c2nc(CNc3ccc(C(=O)NC(CCCCNC(=O)c4ccccc4C(=O)O)C(=O)O)cc3)cnc2n1 (centres undefined) | 0.01 µM (active) | < 0.0133 µM (active) | 0.01 µM (active) | > 100 µM (inactive) | 0.01 µM (active) | 5.38 µM (inactive) | < 0.0119 µM (active) | 0.01 µM (active) | 0.01 µM (active) | 0.01 µM (active) | 3.61 µM (inactive) | > 85.3 µM (inactive) | 0.01 µM (active) | 0.01 µM (active) | > 100 µM (inactive) | > 100 µM (inactive) | 0.01 µM (active) | 0.173 µM (active) | 0.01 µM (active) | 0.01 µM (active)
